Test results reported in patent publication US4028185A, “Method for producing L(+)-tartaric acid” (priority 1975, dated 1977).

Test system: Acinetobacter tartarogenes KB-112
Assay: Effect of nonionic surfactant (0.1 %) on conversion of calcium cis-epoxysuccinate to L(+)-tartaric acid
Assay type: cell-based
Conditions: 30° C., 2 days; for Mole Yields (%) of L(+)-tartaric acid: cis-epoxysuccinate 40 % as free acid, particle size 60 micron, not added: 34; for Rate of Residues (%) of cis-epoxysuccinic acid: residue of 12 g as free acid = 100 %, not added: 64
Method: Acinetobacter tartarogenes KB-112 are used to inoculate 30 ml of culture medium, contained in the Erlenmeyer flask of 200 ml-capacity, which culture medium having been set up into such constitution that, to the basic culture medium which is composed of casamino acid (0.05 %), ammonium nitrate (0.1 %), dipotassium hydrogen phosphate (0.2 %), magnesium sulfate (0.05 %), ferrous sulfate (0.001 %), pH 7.0, various sorts of nonionic surfactants are added so that the respective kinds of surface active agents may come to the concentration of 0.1 %. And simultaneously, the crystals of calcium cis-epoxysuccinate (average particle size: 60 micron) is added, in such way that it may come to the final concentration of 40 % counted as the free acid; and the above mixture is subjected to rotatory shake culture at 30° C., and for 2 days, and thence being allowed to exert reaction effect. After the termination of reaction, and the crystals are collected by filtration and, after addition of sulfuric acid, subjected to centrifugal separator to eliminate the solid substances. Subsequently, the quantitative determinations are made, with respect to L(+)-tartaric acid, by depending upon the optical rotation at 436 mμ; and with respect to the remaining cis-epoxysuccinic acid, by using Payne & Williams Method (G. B. Payne and P. H. Williams: Journal of Organic Chemistry, 24, 54, (1959)).

Row | Compound | Mole Yields (%) of L(+)-tartaric acid [%] | Rate of Residues (%) of cis-epoxysuccinic acid [%]
1 | Propyleneglycol monostearate [NIKKOL PMS-SE] | 46 | 50
2 | Sorbitan monooleate [NIKKOL SR-10] | 45 | 52
3 | CCCCCCCCCCCCCCCCCC(=O)OCC(O)CO (stereo not drawn) [NIKKOL MGS-C, Glyceryl monostearate] | 48 | 47
